Data set [1] concerns the target T1, T7 RNA polymerase (Escherichia phage T7, UniProt P00573). The following applies: natural NTPs 1 mM, sTP 1 mM; for relative yield of full-length (17-mer) transcript: template DNA containing one unnatural base, natural-base template set to 100%; for full-length transcript formation: template containing two unnatural bases. How it is done: Transcription was performed in a 40 mM Tris-HCl (pH 8.0) buffer solution (20 μl) containing 24 mM MgCl2, 2 mM spermidine, 5 mM DTT and 0.01% Triton X-100, in the presence of 1 mM natural NTPs or 1 mM sTP, 2 μCi [γ-^32P]GTP, 2 μM template and 50 units of T7 RNA polymerase (Takara, Kyoto).
The use of [γ-^32P]GTP allowed determination of yields because the transcripts were labeled only at their 5′-end. After incubation at 37° C. for 3 hours, a dye solution (20 μl ) containing 10 M urea and 0.05% BPB was added to stop the reaction. The mixtures were each heated at 75° C. for 3 hours and the products were analyzed on a 20% polyacrylamide-7 M urea gel.
These templates were used to effect transcription for 3 hours, and the transcripts whose 5′-end was labeled with [γ-^32P]GTP were analyzed on a gel. […] The transcripts are labeled with [γ-^32P]GTP at their 5′-end. The relative yield of each transcript was determined in comparison with the yield of a transcript from a template composed only of natural bases, which was set to 100%. Each yield was averaged from 3 to 4 data sets.

The target in data set [2] is T1, T7 RNA polymerase. How it is done:
In this example, to study the selectivity of s-Pa base pair during transcription, composition analysis was performed on nucleotides in the full-length (17-mer) transcripts obtained by transcription from Pa, z and natural templates. The transcripts were each internally labeled with any of [α-^32P]UTP, [α-^32P]ATP or [α-^32]GTP, and these transcripts were completely digested with RNase T2 into a nucleoside 3′-phosphate form. The resulting labeled nucleotides were analyzed by 2D-TLC (FIG. 3), and the spots were quantified for each nucleoside 3′-monophosphate (Table 1).
More specifically, transcription was performed in 40 mM Tris-HCl (pH 8.0) buffer (20 μl) containing 24 mM MgCl2, 2 mM spermidine, 5 mM DTT and 0.01% Triton X-100, in the presence of 10 mM GMP, 1 mM natural NTPs (1 mM, N=A, G, C, U), 0, 1 or 3 mM sTP, 2 μCi [γ-^32P]UTP, [γ-^32P]ATP or [γ-^32P]GTP (Amersham), 2 μM template DNA, and 50 units of T7 RNA polymerase (Takara) (Non-patent Documents 14 and 15). After incubation for 3 hours at 37° C., a dye solution was added to stop the transcription.
This mixture was heated at 75° C. for 3 hours and then electrophoresed on a 15% polyacrylamide-7 M urea gel. The full-length product was eluted from the gel and 0.05 A260 units of E. coli tRNA was then added thereto, followed by ethanol precipitation. The transcript was digested at 37° C. for 2 hours with 0.075 U/μl RNase T2 in 15 mM sodium acetate buffer (pH 4.5). […] The digestion products were analyzed by 2D-TLC using a Merck HPTLC plate (100×100 mm, Merck, Darmstadt, Germany). The developing solvents used for the first and second dimensions were isobutyric acid/NH4OH/H2O (66:1:33 v/v/v) and isopropyl alcohol/HCl/H2O (70:15:15 v/v/v), respectively. The products on the TLC plate were analyzed with a bio-imaging analyzer. Each spot was quantified by averaging from 3 to 9 data sets.

Data set [3] is described as follows: Excitation and fluorescence spectra of the fluorescent bases. The following applies: for fluorescence wavelength, center: excited at the stated excitation wavelength. Type of data set: physicochemical.
Data set [4] has as its target T1, T7 RNA polymerase. The settings on record: 1 mM yTP; template composed only of natural bases (Entry No. 10).
Description: T7 RNA polymerase-mediated transcription reaction was accomplished in a reaction solution containing 40 mM Tris-HCl buffer (pH 8.0), 8 mM MgCl2, 2 mM spermidine, 5 mM DTT, 0.01% Triton X-100, 2 μCi [α-^32P]ATP or 2 μCi [α-^32P]GTP or 2 μCi [α-^32P]CTP or 2 μCi [α-^32P]UTP, 1 mM NTPs, 0-1 mM sTP, 0-1 mM yTP, 0.5 μM template DNA, and 50 units of T7 RNA polymerase (Takara). The transcript was purified by electrophoresis on a 15% polyacrylamide-7 M urea gel, eluted from the gel and then collected by ethanol precipitation in the presence of tRNA (0.05 OD). This sample was dissolved in 10 μl sterilized water, and the resulting solution (8.5 μl) was provided for complete digestion with RNase T2. To the solution (8.5 μl), RNase T2 (1.5 μl, 0.5 U/μl) was added and reacted at 37° C. for 2 hours. A part of this solution was spotted on a TLC plate (Merck, 10 cm×10 cm) and developed two-dimensionally. The developing solutions used for the first and second dimensions were isobutyric acid:concentrated aqueous ammonia:water=66:1:33 (v/v/v) and 2-propanol:hydrochloric acid:water=65:10:25 (v/v/v), respectively.
In this technique, upon incorporation of a radioactive substrate, a nucleotide located at the 5′-side of the substrate can be detected on two-dimensional TLC. […]
Data set [5] is described as follows: FRET between s or v in 35-mer DNA and FAM-y or FAM-hx-y in 17-mer RNA (DNA/RNA duplexes). The following applies: for FRET with 17-mer RNA using excessive DNA probe: 10 molar equivalents of DNA against the 17-mer RNA. Type of data set: physicochemical. An excerpt: (§1) DNA containing an artificial base s or v was synthesized as described, for example, in WO 01/05801 or WO 2005/026187 by using a cyanoethylphosphoroamidite derivative of a nucleotide containing an artificial base s or v in accordance with the DNA chemical synthesis method well known in the art. The sequence of the chemically synthesized 35-mer DNA is as follows: 5′-CAN1N2N3[…]-3′ (SEQ ID NO: 20; DNA in which N1N2N3 is CTs or CTv is referred to as DNA35s1 or DNA35v1, respectively; DNA in which N1N2N3 is Css or Cvv is referred to as DNA35s2a or DNA35v2a, respectively; and DNA in which N1N2N3 is sTs or vTv is referred to as DNA35s2b or DNA35v2b, respectively). The resulting DNA was purified by gel electrophoresis.
17-mer RNA incorporating FAM-y or FAM-hx-y at the N′ position (5′-[…]′AGUG-3′; SEQ ID NO: 21) was prepared through T7 transcription using T7 RNA polymerase and a substrate of FAM-y or FAM-hx-y (FAM-yTP or FAM-hx-yTP). […] The reaction mixture was heated at 75° C. for 3 minutes and the 17-mer transcript was purified by gel electrophoresis.
(§2) Fluorescence spectra were measured in a buffer containing 10 mM sodium phosphate (pH 7.0), 100 mM NaCl and 0.1 mM EDTA. Emission spectra were recorded with an excitation wavelength of 350 nm for s and 360 nm for v, respectively. The emission spectral bandpass was set to 5 nm.
The 17-mer RNA site-specifically incorporating FAM-y or FAM-hx-y was hybridized with 35-mer DNA site-specifically containing one or two s or v bases (DNA35s1, 35s2a, 35S2b, 35v1, 35v2a or 35v2b) to measure emission spectra for the DNA/RNA duplex at different temperatures (20° C. and 70° C.).

A short description of data set [6]: Steady-state fluorescence emission of single-stranded DNAs containing s or v. Type of data set: physicochemical. The following applies: single-stranded 35-mer DNA with two artificial bases.
Excerpt: as §1, §2

Values joined by “and” are separate entries in the source; they are usually repeats but may differ in a detail not shown here. Equal entries are not always repeated. Where two headings read alike, the source gives them in different places. [s] = deoxynucleotide carrying the publication's artificial base s, incorporated via its phosphoramidite; [v] = deoxynucleotide carrying the publication's artificial base v, incorporated via its phosphoramidite

T1 sequence (P00573 whole entry): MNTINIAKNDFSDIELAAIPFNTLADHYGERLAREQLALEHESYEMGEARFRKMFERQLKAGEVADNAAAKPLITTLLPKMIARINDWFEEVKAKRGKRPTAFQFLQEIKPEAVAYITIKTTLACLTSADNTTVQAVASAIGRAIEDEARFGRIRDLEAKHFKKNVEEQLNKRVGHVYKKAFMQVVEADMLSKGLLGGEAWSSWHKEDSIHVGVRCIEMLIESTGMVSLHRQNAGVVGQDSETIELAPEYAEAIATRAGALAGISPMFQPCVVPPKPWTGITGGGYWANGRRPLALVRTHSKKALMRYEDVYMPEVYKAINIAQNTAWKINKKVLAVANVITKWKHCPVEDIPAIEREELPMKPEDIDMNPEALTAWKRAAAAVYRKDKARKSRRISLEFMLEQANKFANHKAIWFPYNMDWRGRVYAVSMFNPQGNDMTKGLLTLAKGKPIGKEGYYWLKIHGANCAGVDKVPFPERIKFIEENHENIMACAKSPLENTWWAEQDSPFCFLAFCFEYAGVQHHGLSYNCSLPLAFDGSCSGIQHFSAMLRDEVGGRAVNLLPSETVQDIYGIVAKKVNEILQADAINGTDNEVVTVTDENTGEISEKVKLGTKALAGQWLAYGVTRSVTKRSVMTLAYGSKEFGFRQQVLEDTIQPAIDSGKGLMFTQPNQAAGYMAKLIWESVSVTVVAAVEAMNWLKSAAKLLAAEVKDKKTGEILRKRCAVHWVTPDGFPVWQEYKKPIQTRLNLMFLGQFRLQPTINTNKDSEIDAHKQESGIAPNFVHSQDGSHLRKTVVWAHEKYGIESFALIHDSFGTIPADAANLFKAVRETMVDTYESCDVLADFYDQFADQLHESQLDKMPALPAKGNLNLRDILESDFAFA

For the compound 2-formyl-1H-pyrrol-1-yl group [Pa], at T7 RNA polymerase [1], the “relative yield of full-length (17-mer) transcript” value amounted to 92% and the full-length transcript formation result is given as “full-length products were obtained”.
Turning to “2-oxo-1,3-dihydroimidazol-1-yl group [reference compound]”, at T7 RNA polymerase [1], the “relative yield of full-length (17-mer) transcript” value amounted to 35% and the full-length transcript formation entry is reported as “no full-length transcript was obtained”.
Consider `Nc1nc(-c2cccs2)c2nc[nH]c2n1` [s, 2-amino-6-(2-thienyl)-9H-purin-9-yl group], for which the “selectivity of s incorporation into RNA opposite Pa in the template DNA” value at T7 RNA polymerase [2] (template containing one Pa base, sTP 1 mM (Table 1, Entry No. 1)) is 97%. For the same compound, on T7 RNA polymerase [2] (template containing two Pa bases), the “selectivity of s incorporation at the first position” value came to 95%. Also, the “selectivity of s incorporation at the second position” value on T7 RNA polymerase [2] (template containing two Pa bases, sTP 1 mM) was 84-87%. The “selectivity of s incorporation at the second position” value at T7 RNA polymerase [2] (template containing two Pa bases, sTP 3 mM) is recorded as 89-93%. Also, in data set [3], the “excitation wavelength (maximum)” value was 352 nm and 299 nm; the “fluorescence wavelength, center” value was found to be 434 nm. For the same compound, the “quantum yield of the fluorescence” value in data set [3] (pH 7.0) was determined as 0.41.
For the compound `Nc1nc(-c2cccs2)c2ncn([C@@H]3O[C@H](COP(=O)(O)OP(=O)(O)OP(=O)(O)O)[C@@H](O)[C@H]3O)c2n1` [sTP, 2-amino-6-(2-thienyl)-9-(1-β-D-ribofuranosyl)purine 5′-triphosphate], the “misincorporation of sTP opposite natural bases in the template” value on T7 RNA polymerase [2] (Table 1, Entry Nos. 4 and 6) is “no misincorporation”.
In the case of `c1csc(-c2ncnc3[nH]cnc23)c1` [s′, 6-(2-thienyl)-9H-purin-9-yl group], in data set [3], the “excitation wavelength (maximum)” value worked out at 325 nm and the “fluorescence wavelength, center” value is listed as 381 nm.
As to `Nc1nc(-c2nccs2)c2nc[nH]c2n1` [v, 2-amino-6-(2-thiazolyl)-9H-purin-9-yl group], in data set [3], the “excitation wavelength (maximum)” value was 363 nm and the “fluorescence wavelength, center” value came to 461 nm.
Turning to `O=c1[nH]cccc1C1OC(COP(=O)(O)OP(=O)(O)OP(=O)(O)O)C(O)C1O` (stereo not shown) [yTP], the “incorporation of yp opposite natural template bases” value at T7 RNA polymerase [4] is recorded as “a slight amount of yp was incorporated”.
On to “DNA35s1: 35-mer DNA (SEQ ID NO: 20) in which N1N2N3 is CTs (DNA CACTNCTCGGGATTCCCTATAGTGAGTCGTATTAT; DNA, [s] at 5, backbone, methylation of C and the base at N not given here)”, for which the “FRET with 17-mer RNA using excessive DNA probe” value (“FRET with 17-mer RNA” below) in data set [5] is given as “completely buried in the background fluorescence”. Besides, the entries for the “FRET in duplex with 17-mer RNA incorporating FAM-y or FAM-hx-y” value (“FRET in duplex” for short) in data set [5] (20° C.) and in data set [5] (duplex denatured at 70° C.) were “FRET occurred” and “FRET was significantly reduced”, respectively.
On to “DNA35s2a: 35-mer DNA (SEQ ID NO: 20) in which N1N2N3 is Css (DNA CACNNCTCGGGATTCCCTATAGTGAGTCGTATTAT; DNA, [s] at 4, 5, backbone, methylation of C and the base at N not given here)”, for which the “FRET with 17-mer RNA” value in data set [5] is reported as “FRET was clearly observed”. Besides, the “FRET in duplex” value in data set [5] (20° C.) is on record as “FRET occurred efficiently”. The “fluorescence intensity of single-stranded DNA” value (from here on “fluorescence intensity”) in data set [6] is reported as “significantly decreased”.
“DNA35s2b: 35-mer DNA (SEQ ID NO: 20) in which N1N2N3 is sTs (DNA CANTNCTCGGGATTCCCTATAGTGAGTCGTATTAT; DNA, [s] at 3, 5, backbone, methylation of C and the base at N not given here)”: the “fluorescence intensity” value in data set [6] is reported as “no significant decrease”.
“DNA35v1: 35-mer DNA (SEQ ID NO: 20) in which N1N2N3 is CTv (DNA CACTNCTCGGGATTCCCTATAGTGAGTCGTATTAT; DNA, [v] at 5, backbone, methylation of C and the base at N not given here)”: the “FRET with 17-mer RNA” value in data set [5] was “completely buried in the background fluorescence”. The “FRET in duplex” value in data set [5] (20° C.) is reported as “FRET occurred”; in data set [5] (duplex denatured at 70° C.), “FRET was significantly reduced”.
As to “DNA35v2a: 35-mer DNA (SEQ ID NO: 20) in which N1N2N3 is Cvv (DNA CACNNCTCGGGATTCCCTATAGTGAGTCGTATTAT; DNA, [v] at 4, 5, backbone, methylation of C and the base at N not given here)”, the “FRET with 17-mer RNA” value in data set [5] is reported as “FRET was clearly observed”. Further, the “FRET in duplex” value in data set [5] (20° C.) is recorded as “FRET occurred efficiently”. For the same compound, the “fluorescence intensity” value in data set [6] is “significantly decreased”.
For the compound “DNA35v2b: 35-mer DNA (SEQ ID NO: 20) in which N1N2N3 is vTv (DNA CANTNCTCGGGATTCCCTATAGTGAGTCGTATTAT; DNA, [v] at 3, 5, backbone, methylation of C and the base at N not given here)”, the “fluorescence intensity” value in data set [6] is listed as “no significant decrease”.

The values above are taken from patent publication US8212014B2, “Artificial base pairs and uses thereof” (Riken, priority 2005, dated 2012).
